{"source": "patent EP0339978B1", "about": "“Fused polycyclic compounds, compositions, methods of manufacture, and their use as PAF antagonists, antihistamines and/or antiinflammatory agents” (SCHERING CORPORATION, priority 1988, dated 1989)", "key": {"[1]": {"tested_on": "Cellular and Fluid Influx to Rat Pleural Cavity", "assay": "Inhibition of cellular and fluid influx to rat pleural cavity (antiinflammatory activity assay)", "type": "in vivo", "conditions": "25 mg 1 kg p.o., rats", "procedure": "Compounds 3.0 of this invention are useful for the treatment of inflammation; thus, they are useful for the treatment of arthritus, bursitis, tendonitis, gout, and other inflammatory conditions. […] Protection against cellular and fluid influx strongly indicates antiinflammatory properties. D. Antiinflammatory Activity Assay Inhibition of Cellular and Fluid Influx to Rat Pleural Cavity. Groups of 4 male rats are injected in the penile vein with antigen (1 mg BSA in 0.2 mL of saline per rat) and 0.5 hour later injected in the pleural cavity with antibody (1.0 mg antibody protein in the IgG fraction of rabbit anti-BSA in 0.2 mL). […] After 4 hours the animals are killed with CO2, and the pleural cavities are opened and the exudate is drained into a graduated conical glass centrifuge tube containing indomethacin (1.8 ug) and nordihydroguaiaretic acid (NDGA) (15 ug) to block ex vivo metabolite synthesis. The volume of the exudate is measured. The cavity is then washed out with saline-EDTA to achieve a final volume of 5.0 mL. The number of cells is determined in a Coulter Counter. The cells are spun-down (1000 x g) and the exudate supernatant is added to 4 volumes of 95% ethanol and samples are kept on ice for 30 minutes. After removal of the protein precipitate (2,500 x g) the ethanol extract of the exudate is dried under N2 and then is stored at -20°C. […]"}, "PAF": {"tested_on": "PAF", "assay": "PAF antagonism in vitro assay: PAF-induced platelet aggregation in platelet-rich plasma", "type": "cell-based", "conditions": "PAF 1-5 X 10^-8M, human PRP", "procedure": "Preparation of platelet-rich plasma (PRP): Human blood (50 ml) is collected from healthy male donors. The blood is mixed with an anticoagulant solution (5 ml) containing sodium citrate (3.8%) and dextrose (2%). Blood is centrifuged at 110 X g for 15 min. and the supernatant PRP is carefully transferred into a polypropylene tube. Platelet-poor-plasma (PPP) is prepared by centrifuging PRP at 12,000 X g for 2 min. in a Beckman Microfuge B. PRP is used within 3 hours of drawing the blood.\nPlatelet Aggregation Assay: When an aggregating agent such as PAF is added to PRP, platelets aggregate. An aggregometer quantifies this aggregation by measuring light (infra-red) transmission through PRP and comparing it to transmission through PPP. The aggregation assays are performed using a dual-channel aggregometer (Model 440, Chrono-Log Corp., Havertown, PA). PRP (0.45 ml) in aggregometer curettes is continually stirred (37°C). Solutions of test compounds or vehicle are added to the PRP, and, after incubation for 2 min., 10-15 µl aliquots of pAF solution are added so as to achieve a final concentration of 1-5 X 10^-8M. Incubations are continued until the increase in light transmission reaches a maximum (usually about 2 min). Values for inhibition are calculated by comparing maximal aggregation obtained in the absence and the presence of the compound. For each experiment, a standard PAF antagonist, such as alprazolam, is used as a positive internal control. The inhibitory concentration is the concentration of compound in micromoles at which the indicated % inhibition of the aggregation is found, as measured by the light transmission through each sample of PRP as compared to that through each sample of PPP."}}, "data": [{"smiles": "O=C1c2ccccc2CCc2c1[nH]c1ccccc21", "note": "[Compound E, 11,12-Dihydrobenzo[5,6]cyclohepta[1,2-b]indol-6(5H)-one]", "values": [{"measurement": "reduced cellular influx to the pleural cavity", "setting": "[1]", "result": 65, "unit": "%"}, {"measurement": "reduced fluid influx to the pleural cavity", "setting": "[1]", "result": 25, "unit": "%"}]}, {"smiles": "CC(=O)N1CCC(=C2c3ccccc3CCc3sc(C)nc32)CC1", "note": "[compound 4]", "values": [{"measurement": "Inhibition (%)", "setting": "PAF; Dose 12 μm", "result": 29, "unit": "%"}, {"measurement": "Inhibition (%)", "setting": "PAF; Dose 25 μm", "result": 71, "unit": "%"}, {"measurement": "Inhibition (%)", "setting": "PAF; Dose 50 μm", "result": 100, "unit": "%"}]}, {"smiles": "COc1ccc(Cn2c(C)nc3c2CCc2ccccc2C3=C2CCN(C(C)=O)CC2)cc1", "note": "[compound 5]", "values": [{"measurement": "Inhibition (%)", "setting": "PAF; Dose 50 μm", "result": 67, "unit": "%"}]}]}
